This test concerns the target PD-1/PD-L1 (Homo sapiens (Human), UniProt Q9NZQ7). The experiment in a line: Homogeneous time-resolved fluorescence (HTRF) binding assay. The note with it: CisBio kit, read-out: IC50 of compounds binding to PD-1/PD-L1. An excerpt:
Effect embodiment 1: Homogenouse time-resolved fluorescence
Homogeneous time-resolved fluorescence (HTRF) binding assay was used to determine the binding ability of the compound of the present disclosure to PD-1/PD-L1.
The purchased kit (CisBio, #64CUS000C-1) contained reagents required for assays such as PD-1, PD-L1, anti-tag1-Eu, Anti-tag2-XL665, dilute buffer, and detection buffer.
1. The compound was formulated to 10 concentrations with a 3-fold gradient with 100% DMSO.
2. The DMSO solution of the compound was added to the dilute buffer, mixed thoroughly, then transferred to a 96-well plate.
3. PD-L1 was diluted with dilute buffer, then added to the above 96-well plate.
4. PD-1 was diluted with dilute buffer and added to the above 96-well plate, which was then incubated at room temperature for 30 minutes.
5. A portion of anti-tag1-Eu and a portion of anti-tag2-XL665 were added to the detection buffer, mixed thoroughly and transferred to the above 96-well plate.
6. The mixture in the above 96-well plate was incubated at room temperature for 1 to 24 hours.
7. HTRF values were read with Envision.
On the technique in general: Time-resolved FRET reads energy transfer from a long-lived donor to a nearby acceptor.

pIC50: −log10 of the molar value.

Sequence of PD-1/PD-L1 (Q9NZQ7 19-238): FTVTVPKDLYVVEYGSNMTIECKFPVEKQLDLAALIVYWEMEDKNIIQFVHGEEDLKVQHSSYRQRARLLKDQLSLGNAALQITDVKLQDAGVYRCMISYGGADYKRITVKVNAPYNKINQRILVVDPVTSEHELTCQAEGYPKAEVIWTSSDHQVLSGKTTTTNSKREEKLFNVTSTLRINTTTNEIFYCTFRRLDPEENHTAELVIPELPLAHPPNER

Turning to `COCCOc1cc(/C=C/c2cccc(-c3ccccc3)c2C#N)c(C)cc1CN1CCOC[C@H]1C(=O)O` [Compound 25, (S,E)-4-(4-(2-(2-Cyano-[1,1′-biphenyl]-3-yl)vinyl)-2-(2-methoxyethoxy)-5-methylbenzyl)morpholine-3-carboxylic acid], the pIC50 is 8.04. On to `Cc1cc(CN2CCCC[C@H]2C(=O)O)c(OCCO)cc1/C=C/c1cccc(-c2ccccc2)c1C#N` [Compound 26], for which the pIC50 is 8.33. For `COCCOc1cc(/C=C/c2cccc(-c3ccccc3)c2C#N)c(C)cc1CN1CCNC[C@H]1C(=O)O` [Compound 27, (S,E)-1-(4-(2-(2-Cyano-[1,1′-biphenyl]-3-yl)vinyl)-2-(2-methoxyethoxy)-5-methylbenzyl)piperazine-2-carboxylic acid], the pIC50 is 7.24. In the case of `N#Cc1c(/C=C/c2cc(CO)c(CN3CCNC[C@H]3C(=O)O)cc2C(F)(F)F)cccc1-c1ccccc1` [Compound 28, (S,E)-1-(4-(2-(2-Cyano-[1,1′-biphenyl]-3-yl)vinyl)-2-hydroxymethyl-5-trifluoromethylbenzyl)piperazine-2-carboxylic acid] it was 6.87. With `Cc1cc(/C=C/c2cccc(-c3ccccc3)c2C#N)c(Cl)cc1CN1CCN(C(N)=O)C[C@H]1C(=O)O` [Compound 29, (S,E)-4-Carbamoyl-1-(5-chloro-4-(2-(2-cyano-[1,1′-biphenyl]-3-yl)vinyl)-2-methylbenzyl)piperazine-2-carboxylic acid], the pIC50 is 7.21. On to `Cc1cc(CN2CCOC[C@H]2C(=O)O)c(OCCO)cc1/C=C/c1cccc(-c2ccccc2)c1C#N` [Compound 30, (S,E)-4-(4-(2-(2-Cyano-[1,1′-biphenyl]-3-yl)vinyl)-2-(2-hydroxyethoxy)-5-methylbenzyl)morpholine-3-carboxylic acid], for which the pIC50 is 8.11. Turning to `Cc1cc(CN2CCCC[C@H]2C(=O)O)c(O)cc1/C=C/c1cccc(-c2ccccc2)c1C#N` [Compound 31, (S,E)-1-(4-(2-(2-Cyano-[1,1′-biphenyl]-3-yl)vinyl)-2-hydroxy-5-methylbenzyl)piperidine-2-carboxylic acid], the pIC50 is 5.94. In the case of `COCCOc1cc(/C=C/c2cccc(-c3ccccc3)c2C#N)c(CN2CCCC[C@H]2C(=O)O)cc1Cl` [Compound 33, (S,E)-1-(5-Chloro-2-(2-(2-cyano-[1,1′-biphenyl]-3-yl)vinyl)-4-(2-methoxyethoxy)benzyl)piperidine-2-carboxylic acid], the pIC50 was < 5.00.

As to `COCCOc1cc(/C=C/c2cccc(-c3ccccc3)c2C#N)c(CN2CCOC[C@H]2C(=O)O)cc1Cl` [Compound 34, (S,E)-4-(5-Chloro-2-(2-(2-cyano-[1,1′-biphenyl]-3-yl)vinyl)-4-(2-methoxyethoxy)benzyl)morpholine-3-carboxylic acid], the pIC50 was < 5.00. With `COCCOc1cc(/C=C/c2cccc(-c3ccccc3)c2C#N)c(CN[C@@](C)(CO)C(=O)O)cc1Cl` [Compound 35, (S,E)-2-((5-Chloro-2-(2-(2-cyano-[1,1′-biphenyl]-3-yl)vinyl)-4-(2-methoxyethoxy)benzyl)amino)-3-hydroxy-2-methylpropanoic acid] the figure was 5.94. `CS(=O)(=O)CCCOc1cc(/C=C/c2cccc(-c3ccccc3)c2C#N)c(CN2CCCC[C@H]2C(=O)O)cc1Cl` [Compound 36]: the pIC50 is < 5.00. As for `CS(=O)(=O)CCCOc1cc(/C=C/c2cccc(-c3ccccc3)c2C#N)c(CN2CCOC[C@H]2C(=O)O)cc1Cl` [Compound 37], the pIC50 is < 5.00.

On to `Cc1cc(OCCCCC#N)c(CN2CCCC[C@H]2C(=O)O)cc1/C=C/c1cccc(-c2ccccc2)c1C#N` [Compound 39, (S,E)-1-(5-(2-(2-Cyano-[1,1′-biphenyl]-3-yl)vinyl)-2-(4-cyanobutoxy)-4-methylbenzyl)piperidine-2-carboxylic acid], for which the pIC50 was 6.76. With `Cc1cc(OCCCCC#N)c(CN2CCOC[C@H]2C(=O)O)cc1/C=C/c1cccc(-c2ccccc2)c1C#N` [Compound 40, (S,E)-4-(5-(2-(2-Cyano-[1,1′-biphenyl]-3-yl)vinyl)-2-(4-cyanobutoxy)-4-methylbenzyl)morpholine-3-carboxylic acid] the figure was 5.84; with `Cc1cc(OCCO)c(CN2CCCC[C@H]2C(=O)O)cc1/C=C/c1cccc(-c2ccccc2)c1C#N` [Compound 41, (S,E)-1-(5-(2-(2-Cyano-[1,1′-biphenyl]-3-yl)vinyl)-2-(2-hydroxyethoxy)-4-methylbenzyl)piperidine-2-carboxylic acid], 6.55; with `Cc1cc(OCCO)c(CN2CCOC[C@H]2C(=O)O)cc1/C=C/c1cccc(-c2ccccc2)c1C#N` [Compound 42, (S,E)-4-(5-(2-(2-Cyano-[1,1′-biphenyl]-3-yl)vinyl)-2-(2-hydroxyethoxy)-4-methylbenzyl)morpholine-3-carboxylic acid], 6.15. Consider `COCCOc1cc(C)c(/C=C/c2cccc(-c3ccccc3)c2C#N)cc1CN1CCCC[C@H]1C(=O)O` [Compound 43, (S,E)-1-(5-(2-(2-Cyano-[1,1′-biphenyl]-3-yl)vinyl)-2-(2-methoxyethoxy)-4-methylbenzyl)piperidine-2-carboxylic acid], for which the pIC50 is 7.08.

In the case of `COCCOc1cc(C)c(/C=C/c2cccc(-c3ccccc3)c2C#N)cc1CN1CCOC[C@H]1C(=O)O` [Compound 44, (S,E)-4-(5-(2-(2-Cyano-[1,1′-biphenyl]-3-yl)vinyl)-2-(2-methoxyethoxy)-4-methylbenzyl)morpholine-3-carboxylic acid], the pIC50 was 6.58. For `Cc1ccc(OCCCCC#N)c(CN2CCCC[C@H]2C(=O)O)c1/C=C/c1cccc(-c2ccccc2)c1C#N` [Compound 45, (S,E)-1-(2-(2-(2-Cyano-[1,1′-biphenyl]-3-yl)vinyl)-6-(4-cyanobutoxy)-3-methylbenzyl)piperidine-2-carboxylic acid], the pIC50 is < 5.00. With `Cc1ccc(OCCCCC#N)c(CN2CCOC[C@H]2C(=O)O)c1/C=C/c1cccc(-c2ccccc2)c1C#N` [Compound 46, (S,E)-4-(2-(2-(2-Cyano-[1,1′-biphenyl]-3-yl)vinyl)-6-(4-cyanobutoxy)-3-methylbenzyl)morpholine-3-carboxylic acid] the figure was < 5.00; with `N#CCOc1cc(/C=C/c2cccc(-c3ccccc3)c2C#N)c(CN2CCCC[C@H]2C(=O)O)cc1Cl` [Compound 47, (S,E)-1-(5-Chloro-2-(2-(2-cyano-[1,1′-biphenyl]-3-yl)vinyl)-4-(cyanomethoxy)benzyl)piperidine-2-carboxylic acid], < 5.00. For the compound `Cc1cc(CN2CCCC[C@H]2C(=O)O)c(OCC#N)cc1/C=C/c1cccc(-c2ccccc2)c1C#N` [Compound 48, (S,E)-1-(4-(2-(2-Cyano-[1,1′-biphenyl]-3-yl)vinyl)-2-(cyanomethoxy)-5-methylbenzyl)piperidine-2-carboxylic acid], the pIC50 was 8.10. Turning to `COCc1cc(/C=C/c2cccc(-c3ccccc3)c2C#N)c(C(F)(F)F)cc1CN1CCCC[C@H]1C(=O)O` [Compound 49, (S,E)-1-(4-(2-(2-Cyano-[1,1′-biphenyl]-3-yl)vinyl)-2-(methoxymethyl)-5-trifluoromethylbenzyl)piperidine-2-carboxylic acid], the pIC50 was 7.73.

For the compound `COCc1cc(/C=C/c2cccc(-c3ccccc3)c2C#N)c(C(F)(F)F)cc1CN1CCOC[C@H]1C(=O)O` [Compound 50, (S,E)-4-(4-(2-(2-Cyano-[1,1′-biphenyl]-3-yl)vinyl)-2-(methoxymethyl)-5-trifluoromethylbenzyl)morpholine-3-carboxylic acid], the pIC50 was 6.85. With `[2H]C([2H])([2H])Oc1cc(/C=C/c2cccc(-c3ccccc3)c2C#N)c(CN2CCCC[C@H]2C(=O)O)cc1Cl` [Compound 52, (S,E)-1-(5-Chloro-2-(2-(2-cyano-[1,1′-biphenyl]-3-yl)vinyl)-4-(methoxy-d3)benzyl)piperidine-2-carboxylic acid], the pIC50 was < 5.00. Turning to `[2H]C([2H])([2H])OCc1cc(/C=C/c2cccc(-c3ccccc3)c2C#N)c(C(F)(F)F)cc1CN1CCOC[C@H]1C(=O)O` [Compound 54, (S,E)-4-(4-(2-(2-Cyano-[1,1′-biphenyl]-3-yl)vinyl)-2-((methoxy-d3)methyl)-5-trifluoromethylbenzyl)morpholine-3-carboxylic acid], the pIC50 was 6.80. In the case of `[2H]C([2H])([2H])c1c(/C=C/c2cc(CN[C@@](C)(CO)C(=O)O)ccc2C(F)(F)F)cccc1-c1ccccc1` [Compound 55] it was 7.53.

In the case of `COc1cc(/C=C/c2cccc(-c3ccccc3)c2C#N)c(Cl)cc1CN1CCCC[C@H]1C(=O)O` [Compound 57, (S,E)-1-(5-Chloro-4-(2-(2-cyano-[1,1′-biphenyl]-3-yl)vinyl)-2-methoxybenzyl)piperidine-2-carboxylic acid], the pIC50 was 8.36. In the case of `COc1cc(/C=C/c2cccc(-c3ccccc3)c2C)c(Cl)cc1CN1CCCC[C@H]1C(=O)O` [Compound 58, (S,E)-1-(5-Chloro-2-methoxy-4-(2-(2-methyl-[1,1′-biphenyl]-3-yl)vinyl)benzyl)piperidine-2-carboxylic acid] it was 8.17; in that of `[2H]C([2H])([2H])Oc1cc(/C=C/c2cccc(-c3ccccc3)c2C)c(Cl)cc1CN1CCCC[C@H]1C(=O)O` [Compound 59, (S,E)-1-(5-Chloro-2-(methoxy-d3)-4-(2-(2-methyl-[1,1′-biphenyl]-3-yl)vinyl)benzyl)piperidine-2-carboxylic acid], 8.05.
